According to patent US9708314B2, “Heterocyclic amide compound” (NISSAN CHEMICAL INDUSTRIES, LTD., priority 2013, dated 2017):

Legend:
Type in all cases: in vivo
[1] = test system: directly sowed Oryza sativa; experiment: Test Example 3: effect on crop by application to foliage (Wagner pot, water depth 0.1-0.5 cm); conditions: Nineteenth Table; application to foliage; application herbicide amount 320 g/ha
Outline: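 Alluvial soil in 1/10000 are Wagner pots, sown and grown 14 days in a 25–30 °C greenhouse. An emulsifiable concentrate diluted in water to the set dose (g/ha) was sprayed on stems and leaves. Effect scored three weeks later on a 0–5 scale: 5 = ≥90% herbicidal ratio, 0 = ≤5%.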

[2] = test system: Setaria viridis; experiment: Test Example 4: herbicidal effect by application to foliage (diluvial soil, plastic box); conditions: 320 g/ha; for G (Setaria viridis) herbicidal effect grade: foliage application
Outline: (§1)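 Plants were grown in sterilized diluvial soil in a greenhouse at 25-30° C for 14 days, then sprayed on stems and leaves with water-diluted emulsion formulation at set rates in g/ha. Weed control and crop injury were scored 3 weeks after treatment on a 0-5 herbicidal-ratio scale, from 0 (≤5%) to 5 (≥90%).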

[3] = test system: Chenopodium album; experiment: as above; conditions: 320 g/ha; for O (Chenopodium album) herbicidal effect grade: foliage application
Outline: as §1

[4] = test system: Galium spurium; experiment: as above; conditions: 320 g/ha; for Q (Galium spurium) herbicidal effect grade: foliage application
Outline: as §1

[5] = test system: Stellaria media; experiment: as above; conditions: 320 g/ha; for P (Stellaria media) herbicidal effect grade: foliage application
Outline: as §1

[6] = test system: Avena fatua; experiment: as above; conditions: 320 g/ha; for I (Avena fatua) herbicidal effect grade: foliage application
Outline: as §1

[7] = test system: Echinochloa crus-galli var. crus-galli; experiment: as above; conditions: 320 g/ha; for H (Echinochloa crus-galli var. crus-galli) herbicidal effect grade: foliage application
Outline: as §1

[8] = test system: Apera spica-venti.; experiment: as above; conditions: 320 g/ha; for L (Apera spica-venti.) herbicidal effect grade: foliage application
Outline: as §1

[9] = test system: Veronica persica; experiment: as above; conditions: 320 g/ha; for R (Veronica persica) herbicidal effect grade: foliage application
Outline: as §1

[10] = test system: Alopecurus myosuroides; experiment: as above; conditions: 320 g/ha; for J (Alopecurus myosuroides) herbicidal effect grade: foliage application
Outline: as §1

[11] = test system: Amaranthus retroflexus; experiment: as above; conditions: 320 g/ha; for N (Amaranthus retroflexus) herbicidal effect grade: foliage application
Outline: as §1

[12] = test system: Digitaria ciliaris; experiment: as above; conditions: 320 g/ha; for F (Digitaria ciliaris) herbicidal effect grade: foliage application
Outline: as §1

[13] = test system: Abutilon theophrasti; experiment: as above; conditions: 320 g/ha; for M (Abutilon theophrasti) herbicidal effect grade: foliage application
Outline: as §1

[14] = test system: Lolium multiflorum Lam.; experiment: as above; conditions: 320 g/ha; for K (Lolium multiflorum Lam.) herbicidal effect grade: foliage application
Outline: as §1

[15] = test system: Triticum aestivum; experiment: Test Example 4: effect on crop by application to foliage (diluvial soil, plastic box); conditions: 320 g/ha; for e (Triticum aestivum) effect on crop grade: foliage application
Outline: as §1

[16] = test system: directly sowed Oryza sativa; experiment: as above; conditions: 320 g/ha; for d (directly sowed Oryza sativa) effect on crop grade: foliage application
Outline: as §1

[17] = test system: Glycine max; experiment: as above; conditions: 320 g/ha; for c (Glycine max) effect on crop grade: foliage application
Outline: as §1

[18] = test system: Beta vulgaris ssp. vulgaris; experiment: as above; conditions: 320 g/ha; for f (Beta vulgaris ssp. vulgaris) effect on crop grade: foliage application
Outline: as §1

[19] = test system: Brassica campestris L.; experiment: as above; conditions: 320 g/ha; for g (Brassica campestris L.) effect on crop grade: foliage application
Outline: as §1

[20] = test system: Zea mays; experiment: as above; conditions: 320 g/ha; for b (Zea mays) effect on crop grade: foliage application
Outline: as §1

SMILES | b (effect on crop grade) [1] | G (Setaria viridis) herbicidal effect grade [2] | O (Chenopodium album) herbicidal effect grade [3] | Q (Galium spurium) herbicidal effect grade [4] | P (Stellaria media) herbicidal effect grade [5] | I (Avena fatua) herbicidal effect grade [6] | H (Echinochloa crus-galli var. crus-galli) herbicidal effect grade [7] | L (Apera spica-venti.) herbicidal effect grade [8] | R (Veronica persica) herbicidal effect grade [9] | J (Alopecurus myosuroides) herbicidal effect grade [10] | N (Amaranthus retroflexus) herbicidal effect grade [11] | F (Digitaria ciliaris) herbicidal effect grade [12] | M (Abutilon theophrasti) herbicidal effect grade [13] | K (Lolium multiflorum Lam.) herbicidal effect grade [14] | e (Triticum aestivum) effect on crop grade [15] | d (directly sowed Oryza sativa) effect on crop grade [16] | c (Glycine max) effect on crop grade [17] | f (Beta vulgaris ssp. vulgaris) effect on crop grade [18] | g (Brassica campestris L.) effect on crop grade [19] | b (Zea mays) effect on crop grade [20] | further results
CSCCNc1nnc2c(C(=O)Nc3nnnn3C)ccc(C(F)(F)F)n12 [2-080] | 3 (Herbicidal ratio of 40% or more and less than 70%) | – | – | – | – | – | – | – | – | – | – | – | – | – | – | – | – | – | – | – | herbicidal effect, G (Setaria viridis) ([2]; application to foliage): 3 (Herbicidal ratio of 40% or more and less than 70%); herbicidal effect, O (Chenopodium album) ([3]; application to foliage): 5 (Herbicidal ratio of 90% or more (almost completely withered)); herbicidal effect, Q (Galium spurium) ([4]; application to foliage): 4 (Herbicidal ratio of 70% or more and less than 90%); herbicidal effect, P (Stellaria media) ([5]; application to foliage): 4 (Herbicidal ratio of 70% or more and less than 90%); herbicidal effect, I (Avena fatua) ([6]; application to foliage): 1 (Herbicidal ratio of 5% or more and less than 20%); herbicidal effect, H (Echinochloa crus-galli var. crus-galli) ([7]; application to foliage): 5 (Herbicidal ratio of 90% or more (almost completely withered)); herbicidal effect, L (Apera spica-venti.) ([8]; application to foliage): 3 (Herbicidal ratio of 40% or more and less than 70%); herbicidal effect, R (Veronica persica) ([9]; application to foliage): 5 (Herbicidal ratio of 90% or more (almost completely withered)); herbicidal effect, J (Alopecurus myosuroides) ([10]; application to foliage): 1 (Herbicidal ratio of 5% or more and less than 20%); herbicidal effect, N (Amaranthus retroflexus) ([11]; application to foliage): 5 (Herbicidal ratio of 90% or more (almost completely withered)); herbicidal effect, F (Digitaria ciliaris) ([12]; application to foliage): 5 (Herbicidal ratio of 90% or more (almost completely withered)); herbicidal effect, M (Abutilon theophrasti) ([13]; application to foliage): 5 (Herbicidal ratio of 90% or more (almost completely withered)); herbicidal effect, K (Lolium multiflorum Lam.) ([14]; application to foliage): 0 (Herbicidal ratio of 5% or less (almost no effect)); effect on crop, e (Triticum aestivum) ([15]; application to foliage): 0 (Herbicidal ratio of 5% or less (almost no effect)); effect on crop, d (directly sowed Oryza sativa) ([16]; application to foliage): 4 (Herbicidal ratio of 70% or more and less than 90%); effect on crop, c (Glycine max) ([17]; application to foliage): 0 (Herbicidal ratio of 5% or less (almost no effect)); effect on crop, f (Beta vulgaris ssp. vulgaris) ([18]; application to foliage): 5 (Herbicidal ratio of 90% or more (almost completely withered)); effect on crop, g (Brassica campestris L.) ([19]; application to foliage): 5 (Herbicidal ratio of 90% or more (almost completely withered)); effect on crop, b (Zea mays) ([20]; application to foliage): 3 (Herbicidal ratio of 40% or more and less than 70%)
COc1ccccc1-c1nnc2c(C(=O)Nc3nnnn3C)ccc(C(F)(F)F)n12 [2-045] | 5 (Herbicidal ratio of 90% or more (almost completely withered)) | 4 (Herbicidal ratio of 70% or more and less than 90%) | 5 (Herbicidal ratio of 90% or more (almost completely withered)) | 3 (Herbicidal ratio of 40% or more and less than 70%) | 5 (Herbicidal ratio of 90% or more (almost completely withered)) | 2 (Herbicidal ratio of 20% or more and less than 40%) | 5 (Herbicidal ratio of 90% or more (almost completely withered)) | 3 (Herbicidal ratio of 40% or more and less than 70%) | 5 (Herbicidal ratio of 90% or more (almost completely withered)) | 1 (Herbicidal ratio of 5% or more and less than 20%) | 5 (Herbicidal ratio of 90% or more (almost completely withered)) | 5 (Herbicidal ratio of 90% or more (almost completely withered)) | 5 (Herbicidal ratio of 90% or more (almost completely withered)) | 1 (Herbicidal ratio of 5% or more and less than 20%) | 1 (Herbicidal ratio of 5% or more and less than 20%) | 4 (Herbicidal ratio of 70% or more and less than 90%) | 3 (Herbicidal ratio of 40% or more and less than 70%) | 5 (Herbicidal ratio of 90% or more (almost completely withered)) | 5 (Herbicidal ratio of 90% or more (almost completely withered)) | 4 (Herbicidal ratio of 70% or more and less than 90%) | –
Cn1nnnc1NC(=O)c1ccc(C(F)(F)F)n2c(S(C)(=O)=O)nnc12 [2-037] | 5 (Herbicidal ratio of 90% or more (almost completely withered)) | 5 (Herbicidal ratio of 90% or more (almost completely withered)) | 5 (Herbicidal ratio of 90% or more (almost completely withered)) | 5 (Herbicidal ratio of 90% or more (almost completely withered)) | 5 (Herbicidal ratio of 90% or more (almost completely withered)) | 5 (Herbicidal ratio of 90% or more (almost completely withered)) | 5 (Herbicidal ratio of 90% or more (almost completely withered)) | 5 (Herbicidal ratio of 90% or more (almost completely withered)) | 5 (Herbicidal ratio of 90% or more (almost completely withered)) | 5 (Herbicidal ratio of 90% or more (almost completely withered)) | 5 (Herbicidal ratio of 90% or more (almost completely withered)) | 5 (Herbicidal ratio of 90% or more (almost completely withered)) | 5 (Herbicidal ratio of 90% or more (almost completely withered)) | 5 (Herbicidal ratio of 90% or more (almost completely withered)) | 5 (Herbicidal ratio of 90% or more (almost completely withered)) | 4 (Herbicidal ratio of 70% or more and less than 90%) | 5 (Herbicidal ratio of 90% or more (almost completely withered)) | 5 (Herbicidal ratio of 90% or more (almost completely withered)) | 5 (Herbicidal ratio of 90% or more (almost completely withered)) | 5 (Herbicidal ratio of 90% or more (almost completely withered)) | –
CC(C)CSc1nnc2c(C(=O)Nc3nnnn3C)ccc(C(F)(F)F)n12 [2-071] | 3 (Herbicidal ratio of 40% or more and less than 70%) | 4 (Herbicidal ratio of 70% or more and less than 90%) | 5 (Herbicidal ratio of 90% or more (almost completely withered)) | 3 (Herbicidal ratio of 40% or more and less than 70%) | 5 (Herbicidal ratio of 90% or more (almost completely withered)) | 2 (Herbicidal ratio of 20% or more and less than 40%) | 5 (Herbicidal ratio of 90% or more (almost completely withered)) | 1 (Herbicidal ratio of 5% or more and less than 20%) | 5 (Herbicidal ratio of 90% or more (almost completely withered)) | 1 (Herbicidal ratio of 5% or more and less than 20%) | 5 (Herbicidal ratio of 90% or more (almost completely withered)) | 5 (Herbicidal ratio of 90% or more (almost completely withered)) | 4 (Herbicidal ratio of 70% or more and less than 90%) | 1 (Herbicidal ratio of 5% or more and less than 20%) | 1 (Herbicidal ratio of 5% or more and less than 20%) | 3 (Herbicidal ratio of 40% or more and less than 70%) | 2 (Herbicidal ratio of 20% or more and less than 40%) | 5 (Herbicidal ratio of 90% or more (almost completely withered)) | 4 (Herbicidal ratio of 70% or more and less than 90%) | 1 (Herbicidal ratio of 5% or more and less than 20%) | –
